Laboratory results reported in patent publication EP4104829A1 (priority 2021, dated 2022).
Read-outs that look alike come from different tables or passages of the source.

What was measured:
HCoV-229E-GFP [1] = test: organism not typed; type: cell-based
[2] = test system: foot-and-mouth disease virus (FMDV); details: cited from earlier work
SARS-CoV-2 = test: microbe, parasite or virus in culture; type: cell-based; details: for IC50: Severe acute respiratory syndrome coronavirus 2, Vero C1008
SARS-CoV-2 (MAD-6) [3] = test: microbe, parasite or virus in culture; type: cell-based; details: Severe acute respiratory syndrome coronavirus 2, Caco-2
FMDV = details: mouse, in vivo, 100 mg/kg; cited from earlier work
HCoV-229E-GFP [4] = type: cell-based
[5] = Cell viability by MTT assay (cytotoxicity), Vero-E6; details: African green monkey, Vero-E6 cells
HCoV-229E-GFP [6] = test system: HCoV-229E-GFP
SARS-CoV-2 (MAD-6) [7] = test: microbe, parasite or virus in culture; type: cell-based; details: Severe acute respiratory syndrome coronavirus 2, Vero C1008
[8] = Cell viability by MTT assay (cytotoxicity), Huh-7; details: human, Huh-7 cells
HCoV-229E-GFP [9] = type: cell-based; remark: listed apart in the source
[10] = Cell viability by MTT assay (cytotoxicity), Caco-2; details: human, Caco-2 cells

SMILES: CCCOC(=O)c1cc(O)c(O)c(O)c1 [PG, propyl gallate]
- virus inhibition (HCoV-229E-GFP [1]): unable to produce virus inhibition
- inhibition of FMDV production [2]: totally ineffective

SMILES: O=C(O)c1cc(O)c(O)c(O)c1 [gallic acid]
- virus inhibition (HCoV-229E-GFP [1]): unable to produce virus inhibition
- inhibition of FMDV production [2]: totally ineffective
- SI (SARS-CoV-2): 6,2
- IC50 (SARS-CoV-2): 40.3 µM

SMILES: CCCCCCCCOC(=O)c1cc(O)c(O)c(O)c1 [OG, octyl gallate]
- reduction of the HCoV-229E-GFP infection (HCoV-229E-GFP [1]): up to 2 log.u.
- IC50 (HCoV-229E-GFP [1]; Huh-7): 6.21 µM
- inhibition of FMDV production [2]: totally ineffective

SMILES: O=C(O[C@@H]1Cc2c(O)cc(O)cc2O[C@@H]1c1ccc(O)c(O)c1)c1cc(O)c(O)c(O)c1 [epicatechin gallate]
- SI (SARS-CoV-2): 5,8
- IC50 (SARS-CoV-2): 50.1 µM

SMILES: CCCCCCCCCCCCOC(=O)c1cc(O)c(O)c(O)c1 [LG, Lauryl Gallate]
- IC50 (SARS-CoV-2 (MAD-6) [3]): 2.98 µM
- clinical signs (FMDV): reduction
- mortality (FMDV): reduction
- viral RNA copies in different tissues (FMDV): reduction
- reduction of the HCoV-229E-GFP infection (HCoV-229E-GFP [1]): up to 2 log.u.
- decrease in the HCoV-229E-GFP yield (HCoV-229E-GFP [4]): more than 2 log.u.
- CC50 at 24 h [5]: 90.1 µM
- reduction of the virus productivity [2]: up to 2 log.u.
- direct virucidal effect on the virus particle (SARS-CoV-2 MAD-6): No direct toxicity
- SI (SARS-CoV-2): 70,9
- IC50 (SARS-CoV-2): 1.22 µM
- direct virucidal effect on the virus particle (HCoV-229E-GFP [6]): No direct toxicity
- IC50 (SARS-CoV-2 (MAD-6) [7]): 1.28 µM
- CC50 at 24 h [8]: 83.1 µM
- IC50 (HCoV-229E-GFP [9]): 2.05 µM
- CC50 at 24 h [10]: 97.1 µM
